How the values were obtained:
[1] = molecular target: T1, human recombinant beta-2 adrenoreceptors (Homo sapiens, UniProt P07550); test: Beta-2 adrenoceptor binding assay ([3H](−)CGP-12177 displacement); settings: CHO cells expressing human beta-2 adrenoreceptors, [3H](−)CGP-12177 0.3 nM, 120 min
T1 construct: expressed in transfected cells; host or cells: CHO cells
Description: Beta-2 Adrenoceptor Binding Assay
Test compounds were incubated for 120 min with Chinese hamster oocyte (CHO) cells expressing the human recombinant beta-2 adrenoreceptors. Binding of test compounds to the beta-2 adrenoreceptors was determined by measuring the displacement of the radiolabeled ligand [^3H](−)CGP-12177 (0.3 nM) from the receptor measured by a scintillation counting. Concentration response curves were generated for test compounds and the IC50 (molar concentration of the compound which produced 50% inhibition for the maximal response for that compound) was determined. These assays were performed using a protocol based on the original description of the assay by Joseph et al., (2004) Naun.-Sch. Arch. Pharm.; 369:525-532.
IC50 determinations for the compounds presented above are seen in the second column of Table 1 (Beta 2 IC50).

[2] = molecular target: T1, human recombinant beta-2 adrenoreceptors; test: Functional agonism of human recombinant beta-2 adrenoreceptors expressed in CHO cells (cAMP HTRF); format: cell-based; settings: CHO cells expressing human beta-2 adrenoreceptors, cAMP elevation, 30 min
Description: Functional Agonism of Human Recombinant Beta-2 Adrenoreceptors Expressed in Chinese Hamster Oocytes (CHO)
Test compounds were incubated for 30 min with CHO cells expressing the human recombinant beta-2 adrenoreceptors. Agonism of the receptor was measured by the elevation of intracellular cyclic-AMP over control levels detected using a homogeneous time resolved fluorescence (HTRF) format. Compounds were determined to be “full” or “partial” agonists based on the maximum level of cAMP accumulated compared to the control compound isoproterenol which is a full agonist in this assay system. Concentration response curves were generated for test compounds and the EC50 (molar concentration of the agonist which produced 50% of the maximal response for that compound) was determined. These assays were performed using a protocol based on the original description of the assay by Baker, J. G. (2005) Brit. J. Pharmacol.; 144:317-322.
EC50 determinations for the compounds presented above are seen in the third column of Table 1 (Beta 2 EC50).

[3] = tested on: LPS-induced TNF-α release from human peripheral blood mononuclear cells (PBMC); test: Inhibition of LPS-induced TNF-α release from human PBMC; format: cell-based; settings: LPS 0.4 ng/mL, 6 h, presence or absence of ICI-118551 not given
Text: Inhibition of Lipopolysaccharide (LPS)-Induced Tumour Necrosis Factor Alpha (TNF-α) Release from Human Peripheral Blood Mononuclear Cells (PBMC)
Human whole blood was drawn from donors and cell purification initiated within two hours. Peripheral blood mononuclear cells (PBMC) were purified using a standard Ficoll gradient purification technique and aliquoted at a concentration of 100,000 cells/well in 96 well plates. Beta-2 adrenoreceptor agonists are also anti-inflammatory for some immune cells expressing the receptor and in this assay they can inhibit tumor necrosis factor-alpha (TNF-α) production. Therefore PBMC were pre-incubated for 30 min in the presence of the beta-2 adrenoreceptor antagonist ICI-118551 [3-(isopropylamino)-1-[(7-methyl-4-indanyl)oxy]butan-2-ol] (10 μM) to determine the PDE4 directed activity of test compounds, and in the absence of ICI-118551 for the combined PDE4 and beta-2 receptor directed activity. Test compounds were dissolved in DMSO and diluted in buffer (final DMSO concentration of 0.1% v/v) and were then added to the cell suspensions and pre-incubated for a further 1 h at 37° C. LPS solution was then added (0.4 ng/mL) and the cells incubated for a further 6 h. At the end of the incubation period the cell supernatants were collected and TNF-α was measured using a Procarta Cytokine Assay Kit (Affymetrix, Santa Clara, Calif.) according to the manufacturers' instructions. Data were analyzed using MiraiBio Masterplex QT v4.0 software (MasterPlex Version 1.0.1.18 Copyright 2008, Hitachi Software Engineering Co., Ltd) and used to extrapolate Mean Fluorescence Intensity (MFI) into concentrations of TNF-α and mean values from replicate wells were determined. Inhibition curves were plotted using a nonlinear curve fit employing a single-site binding model to determine the IC50 value for each test compound in the presence or absence of ICI-118551 using GraphPad Prism 5 for Windows, version 5.02 (GraphPad Software, San Diego Calif.).
EC50 determinations for the compounds presented above are seen in the fourth column of Table 1 (PBMC TNF EC50).

Human recombinant PDE4B2 = molecular target: T2, Human recombinant PDE4B2 (Homo sapiens, UniProt Q07343); test: Inhibition of PDE4B4 enzyme activity (PDE Glo Assay); format: biochemical; settings: human recombinant PDE4B2, 50 nM cAMP; read-out: PDE4 IC50
T2 construct: purchased BPS Bioscience
T2 sequence (Q07343 1-564 isoform Q07343-2): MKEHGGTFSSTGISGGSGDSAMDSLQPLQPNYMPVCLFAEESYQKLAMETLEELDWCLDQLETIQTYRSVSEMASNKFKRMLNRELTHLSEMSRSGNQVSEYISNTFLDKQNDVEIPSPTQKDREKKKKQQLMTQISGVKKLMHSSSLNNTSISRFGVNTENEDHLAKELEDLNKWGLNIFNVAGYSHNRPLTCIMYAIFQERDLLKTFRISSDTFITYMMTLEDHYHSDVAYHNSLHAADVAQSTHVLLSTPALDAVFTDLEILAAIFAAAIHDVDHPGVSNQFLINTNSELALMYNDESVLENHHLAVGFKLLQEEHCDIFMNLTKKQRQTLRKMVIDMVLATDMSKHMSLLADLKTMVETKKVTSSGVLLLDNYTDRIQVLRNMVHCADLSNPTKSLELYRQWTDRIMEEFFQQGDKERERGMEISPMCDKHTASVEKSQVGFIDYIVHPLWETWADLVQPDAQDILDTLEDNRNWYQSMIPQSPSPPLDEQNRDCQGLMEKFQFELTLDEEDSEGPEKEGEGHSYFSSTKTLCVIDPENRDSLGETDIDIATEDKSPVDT
Description: Biological Examples Inhibition of PDE4B4 Enzyme Activity
The inhibitory activity of test compounds were determined using the PDE Glo Assay (Promega, V1361). The PDE-Glo Reaction Buffer was prepared (1 mL 5× buffer+4 mL water) and 150 nM solution of test compound dissolved in the Reaction Buffer, followed by 1:3 serial dilutions into Reaction Buffer. […] Human recombinant PDE4B2 (BPS Bioscience) was added to test compound in Reaction Buffer at a concentration of 0.12 nM per reaction. The enzyme and test compound were pre-incubated together at rt for 10 min. 50 nM of the enzyme substrate cAMP was then added to initiate the enzyme reaction, with the reaction terminated after one hour. Termination Buffer (1 mL 5× termination buffer+3.9 mL water+100 μL of 100 mM IBMX (ICN Chemicals, in DMSO)), was added to each reaction well to terminate the reaction. Detection Buffer (1 mL 5×PDE-Glo Detection buffer+3.96 mL water+40 μL PKA (supplied in kit)) was added to the cAMP-enzyme-test compound mix and this secondary reaction proceeded for 20 minutes at rt. An equal volume of Kinase Glo Reagent was then added to the reaction mixture and after 10 min luminescence was measured using a luminometer (EnVision, 0.1 sec read for luminescence). Luminescence values were […] related to levels of cAMP in the reaction mixture. Data were plotted as relative light units (RLU) versus test compound concentration and the IC50 determined using GraphPad Prism 5.0, using a nonlinear curve fit in a single-site binding model.
IC50 determinations for the compounds presented above are seen in the first column of Table 1 (PDE4IC50).

T1 sequence (P07550 whole entry): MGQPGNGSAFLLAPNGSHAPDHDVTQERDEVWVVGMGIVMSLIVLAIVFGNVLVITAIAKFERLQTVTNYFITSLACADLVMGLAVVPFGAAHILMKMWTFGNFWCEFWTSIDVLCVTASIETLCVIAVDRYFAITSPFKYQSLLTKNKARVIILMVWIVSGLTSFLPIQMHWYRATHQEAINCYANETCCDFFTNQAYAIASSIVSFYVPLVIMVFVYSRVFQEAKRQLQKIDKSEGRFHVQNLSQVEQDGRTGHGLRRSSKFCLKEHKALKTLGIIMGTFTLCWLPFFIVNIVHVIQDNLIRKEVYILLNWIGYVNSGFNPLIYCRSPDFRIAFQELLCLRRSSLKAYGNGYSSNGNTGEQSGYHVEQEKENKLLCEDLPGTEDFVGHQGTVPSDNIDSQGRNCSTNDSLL

Compound	IC50 [1] [nM]	EC50 [2] [nM]	EC50 [3] [nM]	IC50 (Human recombinant PDE4B2) [nM]
COc1cccc(Nc2c(C(N)=O)cnc3c(C)cc(S(=O)(=O)c4cccc(C(=O)NCCCCCCCCNC[C@H](O)c5ccc(O)c6[nH]c(=O)ccc56)c4)cc23)c1 [Example 1, (R)-6-[[3-[[8-[[2-Hydroxy-2-(8-hydroxy-2-oxo-1,2-dihydroquinolin-5-yl)ethyl]amino]octyl]carbamoyl]phenyl]sulfonyl]-4-[(3-methoxyphenyl)amino]-8-methylquinoline-3-carboxamide]	< 100	< 100	< 100	< 100
COc1cccc(Nc2c(C(N)=O)cnc3c(C)cc(S(=O)(=O)c4cccc(C(=O)Nc5ccc(-c6ccc(CCCCNC[C@H](O)c7ccc(O)c8c7OCC(=O)N8)cc6)cc5)c4)cc23)c1 [Example 21, (R)-6-((3-((4′-(4-((2-hydroxy-2-(5-hydroxy-3-oxo-3,4-dihydro-2H-benzo[b][1,4]oxazin-8-yl)ethyl)amino)butyl)-(1,1′-biphenyl]-4-yl)carbamoyl)phenyl)sulfonyl)-4-((3-methoxyphenyl)amino)-8-methylquinoline-3-carboxamide]	< 100		< 100	
COc1cccc(Nc2c(C(N)=O)cnc3c(C)cc(S(=O)(=O)c4cccc(C(=O)Nc5cccc(-c6ccc(CCCCNC[C@H](O)c7ccc(O)c8c7OCC(=O)N8)cc6)c5)c4)cc23)c1 [Example 22]	< 100	< 100	< 100	
COc1cccc(Nc2c(C(N)=O)cnc3c(C)cc(S(=O)(=O)c4cccc(C(=O)Nc5ccc(C#CCCCNC[C@H](O)c6cc(O)cc7c6OCC(=O)N7)cc5)c4)cc23)c1 [Example 24, (R)-6-((3-((4-(5-((2-hydroxy-2-(6-hydroxy-3-oxo-3,4-dihydro-2H-benzo[b][1,4]oxazin-8-yl)ethyl)amino)pent-1-yn-1-yl)phenyl)carbamoyl)phenyl)sulfonyl)-4-((3-methoxyphenyl)amino)-8-methylquinoline-3-carboxamide]	< 100	< 300	< 100	
COc1cccc(Nc2c(C(N)=O)cnc3c(C)cc(S(=O)(=O)c4cccc(C(=O)Nc5ccc(C#CCCCNC[C@H](O)c6ccc(O)c7c6OCC(=O)N7)cc5C)c4)cc23)c1 [Example 35, (R)-6-((3-((4-(5-((2-hydroxy-2-(5-hydroxy-3-oxo-3,4-dihydro-2H-benzo[b][1,4]oxazin-8-yl)ethyl)amino)pent-1-yn-1-yl)-2-methylphenyl)carbamoyl)phenyl)sulfonyl)-4-((3-methoxyphenyl)amino)-8-methylquinoline-3-carboxamide]	< 100	< 100	< 100	
COc1cccc(Nc2c(C(N)=O)cnc3c(C)cc(S(=O)(=O)c4cccc(C(=O)Nc5ccc(C#CCCCNC[C@H](O)c6ccc(O)c7c6OCC(=O)N7)c(C)c5)c4)cc23)c1 [Example 36, (R)-6-((3-((4-(5-((2-hydroxy-2-(5-hydroxy-3-oxo-3,4-dihydro-2H-benzo[b][1,4]oxazin-8-yl)ethyl)amino)pent-1-yn-1-yl)-3-methylphenyl)carbamoyl)phenyl)sulfonyl)-4-((3-methoxyphenyl)amino)-8-methylquinoline-3-carboxamide]	< 100		< 100	
COc1cccc(Nc2c(C(N)=O)cnc3c(C)cc(S(=O)(=O)c4cccc(C(=O)N(C)c5ccc(CCCCOCCCCCCNC[C@H](O)c6ccc(O)c7[nH]c(=O)ccc67)cc5)c4)cc23)c1 [Example 40, (R)-6-((3-((4-(4-((6-((2-hydroxy-2-(8-hydroxy-2-oxo-1,2-dihydroquinolin-5-yl)ethyl)amino)hexyl)oxy)butyl)phenyl)(methyl)carbamoyl)phenyl)sulfonyl)-4-((3-methoxyphenyl)amino)-8-methylquinoline-3-carboxamide]	< 100	< 100		
COc1cccc(Nc2c(C(N)=O)cnc3c(C)cc(S(=O)(=O)c4cccc(C(=O)N5CCC(NC[C@H](O)c6ccc(O)c(CO)c6)CC5)c4)cc23)c1 [Example 42, (R)-6-[[3-[[4-[[2-Hydroxy-2-[4-hydroxy-3-(hydroxymethyl)phenyl]ethyl]amino]piperidine-1-yl]carbonyl]phenyl]sulfonyl]-4-[(3-methoxyphenyl)amino]-8-methylquinoline-3-carboxamide]	< 300		< 100	< 100
COc1cccc(Nc2c(C(N)=O)cnc3c(C)cc(S(=O)(=O)c4ccc(-c5ccc(CCCNC[C@H](O)c6ccc(O)c7c6OCC(=O)N7)cc5)cc4)cc23)c1 [Example 49, (R)-6-((4′-(3-((2-hydroxy-2-(5-hydroxy-3-oxo-3,4-dihydro-2H-benzo[b][1,4]oxazin-8-yl)ethyl)amino)propyl)-[1,1′-biphenyl]-4-yl)sulfonyl)-4-((3-methoxyphenyl)amino)-8-methylquinoline-3-carboxamide]	< 100		< 100	
COc1cccc(Nc2c(C(N)=O)cnc3c(C)cc(S(=O)(=O)c4cccc(-c5ccc(CCCNC[C@H](O)c6ccc(O)c7c6OCC(=O)N7)cc5)c4)cc23)c1 [Example 50, (R)-6-((4′-(3-((2-hydroxy-2-(5-hydroxy-3-oxo-3,4-dihydro-2H-benzo[b][1,4]oxazin-8-yl)ethyl)amino)propyl)-[1,1′-biphenyl]-3-yl)sulfonyl)-4-((3-methoxyphenyl)amino)-8-methylquinoline-3-carboxamide]	< 100		< 100	
COc1cccc(Nc2c(C(N)=O)cnc3c(C)cc(S(=O)(=O)c4ccc(-c5ccc(CCCCCNC[C@H](O)c6ccc(O)c7c6OCC(=O)N7)cc5)cc4)cc23)c1 [Example 51, (R)-6-((4′-(5-((2-hydroxy-2-(5-hydroxy-3-oxo-3,4-dihydro-2H-benzo[b][1,4]oxazin-8-yl)ethyl)amino)pentyl)-[1,1′-biphenyl]-4-yl)sulfonyl)-4-((3-methoxyphenyl)amino)-8-methylquinoline-3-carboxamide]	< 100	< 100	< 100	
